Reference: article PMC5896373 (Molecular Pharmacology, 2018)

What was measured:
[1] = biological target: T1, P2X7-2Nβ 73–79 deletion (Homo sapiens, UniProt Q99572, DEL73-79/I21V/M24R/N16P/N25R/Q22R/R20V/S23N/T19I/Y26L); assay: Two-electrode voltage clamp of ATP-evoked currents in Xenopus oocytes; assay type: cell-based
T1 construct: expressed in transfected cells; host or cells: Xenopus laevis oocytes (cRNA injection)
T1 sequence (Q99572 with tags, fused parts or gaps N16P/T19I/R20V/I21V/Q22R/S23N/M24R/N25R/Y26L/DEL73-79): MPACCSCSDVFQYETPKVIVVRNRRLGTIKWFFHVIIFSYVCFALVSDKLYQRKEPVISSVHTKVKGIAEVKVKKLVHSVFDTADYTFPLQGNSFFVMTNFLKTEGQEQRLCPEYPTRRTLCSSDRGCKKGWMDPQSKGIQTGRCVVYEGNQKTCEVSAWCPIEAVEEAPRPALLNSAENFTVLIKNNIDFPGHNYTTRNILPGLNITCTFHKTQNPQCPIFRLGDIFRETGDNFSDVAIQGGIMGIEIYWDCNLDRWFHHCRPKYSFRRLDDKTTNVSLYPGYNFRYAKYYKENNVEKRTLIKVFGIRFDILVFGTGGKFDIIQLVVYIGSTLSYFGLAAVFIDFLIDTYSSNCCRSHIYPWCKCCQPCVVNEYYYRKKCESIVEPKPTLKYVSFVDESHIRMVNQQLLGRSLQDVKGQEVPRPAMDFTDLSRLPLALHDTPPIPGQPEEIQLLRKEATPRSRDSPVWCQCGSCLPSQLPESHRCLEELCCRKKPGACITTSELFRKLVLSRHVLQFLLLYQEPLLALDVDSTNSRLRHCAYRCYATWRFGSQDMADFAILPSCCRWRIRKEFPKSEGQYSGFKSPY
Description: (§1) Additional point mutants were made using the QuikChange mutagenesis kit (Stratagene California, La Jolla, CA). The production of the correct mutations and absence of coding errors was determined by DNA sequencing (Automated ABI Sequencing Service, University of Leicester, UK). cRNA was generated for the mutants and 50 nl (50 ng) was injected into manually defoliculated stage V Xenopus laevis oocytes using an Inject+Matic microinjector (J.A. Gabay, Inject+Matic, Geneva, Switzerland). Injected oocytes were stored at 16°C in ND96 buffer [in millimolar concentrations, NaCl 96, KCl 2, CaCl2 1.8, MgCl2 1, sodium pyruvate 5, and HEPES 5 (pH 7.6) supplemented with 50 μg/ml gentamycin and 50 μg/ml tetracycline]. Three to seven days postinjection two-electrode voltage clamp recordings were made from oocytes bathed in divalent-free ND96 buffer (in millimolar concentrations, NaCl 96, KCl 2, sodium pyruvate 5, HEPES 5, and 0.1 flufenamic acid, pH 7.6). Oocytes were voltage clamped at a holding potential of −60 mV with a GeneClamp500B amplifier (Molecular Devices).
(§2) Inhibition by the antagonists was expressed as the percentage of the peak current amplitude of an EC90 concentration of ATP recorded before the application of antagonist (ATP gave reproducible responses to ATP in the absence of antagonist). Inhibition curves were fitted with the Hill equation (variable slope) using GraphPad Prism 6 (GraphPad Software, San Diego, CA). […] Individual concentration-response curves were generated for individual experiments, and statistical analysis was carried out on the data generated. […] Data are shown as mean ± S.E.M. In all cases n ≥ 3 for all data points.

[2] = biological target: T2, chimeric P2X7/1 receptor 89–94 (Homo sapiens, UniProt Q99572, I21V/M24R/N16P/N25R/Q22R/R20V/S23N/T19I/T90V/T94V/Y26L); assay: as above; assay type: cell-based; settings: for IC50: inhibition of EC90 ATP response
T2 construct: expressed in transfected cells; host or cells: Xenopus laevis oocytes (cRNA injection)
T2 sequence (Q99572 1-595 N16P/T19I/R20V/I21V/Q22R/S23N/M24R/N25R/Y26L/T90V/T94V): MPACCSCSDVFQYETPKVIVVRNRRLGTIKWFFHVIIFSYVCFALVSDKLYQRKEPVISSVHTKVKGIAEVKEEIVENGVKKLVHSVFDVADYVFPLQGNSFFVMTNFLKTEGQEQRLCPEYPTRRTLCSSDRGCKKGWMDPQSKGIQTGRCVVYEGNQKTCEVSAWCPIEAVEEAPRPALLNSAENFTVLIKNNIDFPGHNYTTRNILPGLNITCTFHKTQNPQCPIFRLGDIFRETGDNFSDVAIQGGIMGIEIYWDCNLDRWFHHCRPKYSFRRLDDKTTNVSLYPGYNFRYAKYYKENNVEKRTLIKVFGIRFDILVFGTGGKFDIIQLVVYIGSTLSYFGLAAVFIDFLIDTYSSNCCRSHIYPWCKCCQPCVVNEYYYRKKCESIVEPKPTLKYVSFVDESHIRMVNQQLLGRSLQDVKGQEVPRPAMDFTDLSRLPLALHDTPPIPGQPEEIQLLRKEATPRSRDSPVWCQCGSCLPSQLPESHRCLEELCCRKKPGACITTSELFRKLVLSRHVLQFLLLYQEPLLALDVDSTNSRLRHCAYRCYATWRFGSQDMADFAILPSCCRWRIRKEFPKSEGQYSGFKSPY
Description: The production of the correct mutations and absence of coding errors was determined by DNA sequencing (Automated ABI Sequencing Service, University of Leicester, UK). cRNA was generated for the mutants and 50 nl (50 ng) was injected into manually defoliculated stage V Xenopus laevis oocytes using an Inject+Matic microinjector (J.A. Gabay, Inject+Matic, Geneva, Switzerland). Injected oocytes were stored at 16°C in ND96 buffer [in millimolar concentrations, NaCl 96, KCl 2, CaCl2 1.8, MgCl2 1, sodium pyruvate 5, and HEPES 5 (pH 7.6) supplemented with 50 μg/ml gentamycin and 50 μg/ml tetracycline]. Three to seven days postinjection two-electrode voltage clamp recordings were made from oocytes bathed in divalent-free ND96 buffer (in millimolar concentrations, NaCl 96, KCl 2, sodium pyruvate 5, HEPES 5, and 0.1 flufenamic acid, pH 7.6). Oocytes were voltage clamped at a holding potential of −60 mV with a GeneClamp500B amplifier (Molecular Devices).
as §2

[3] = biological target: T3, P2X7R point mutant K297G (Homo sapiens, UniProt Q99572, I21V/K297G/M24R/N16P/N25R/Q22R/R20V/S23N/T19I/Y26L); assay: as above; assay type: cell-based; settings: EC90 ATP, mean ± S.E.M.
T3 construct: expressed in transfected cells; host or cells: Xenopus laevis oocytes (cRNA injection)
T3 sequence (Q99572 whole entry N16P/T19I/R20V/I21V/Q22R/S23N/M24R/N25R/Y26L/K297G): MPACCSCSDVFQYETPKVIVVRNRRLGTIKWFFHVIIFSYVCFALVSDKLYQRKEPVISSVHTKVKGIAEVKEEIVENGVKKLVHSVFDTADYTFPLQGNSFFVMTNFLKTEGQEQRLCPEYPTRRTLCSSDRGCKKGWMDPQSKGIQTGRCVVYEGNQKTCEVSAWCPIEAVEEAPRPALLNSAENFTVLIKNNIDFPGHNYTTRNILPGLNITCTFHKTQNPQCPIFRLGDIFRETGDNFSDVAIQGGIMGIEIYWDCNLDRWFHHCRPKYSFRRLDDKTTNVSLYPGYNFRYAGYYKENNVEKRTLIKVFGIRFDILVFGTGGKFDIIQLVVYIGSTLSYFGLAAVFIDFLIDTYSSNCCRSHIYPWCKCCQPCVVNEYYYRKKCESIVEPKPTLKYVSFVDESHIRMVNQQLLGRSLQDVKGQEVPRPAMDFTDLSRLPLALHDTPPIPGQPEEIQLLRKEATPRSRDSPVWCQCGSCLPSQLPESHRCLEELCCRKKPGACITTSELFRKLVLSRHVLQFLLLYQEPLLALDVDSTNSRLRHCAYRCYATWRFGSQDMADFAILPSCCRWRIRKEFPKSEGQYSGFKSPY
Description: as §1
(§3) Inhibition by the antagonists was expressed as the percentage of the peak current amplitude of an EC90 concentration of ATP recorded before the application of antagonist (ATP gave reproducible responses to ATP in the absence of antagonist). […]

[4] = biological target: T4, P2X7R point mutant Y299C (Homo sapiens, UniProt Q99572, I21V/M24R/N16P/N25R/Q22R/R20V/S23N/T19I/Y26L/Y299C); assay: as above; assay type: cell-based; settings: EC90 ATP, mean ± S.E.M.
T4 construct: expressed in transfected cells; host or cells: Xenopus laevis oocytes (cRNA injection)
T4 sequence (Q99572 whole entry N16P/T19I/R20V/I21V/Q22R/S23N/M24R/N25R/Y26L/Y299C): as the sequence (Q99572 whole entry N16P/T19I/R20V/I21V/Q22R/S23N/M24R/N25R/Y26L/K297G) above, with G297K, Y299C counted along it
Description: as §1, §3

[5] = biological target: T5, P2X7R point mutant I310A (Homo sapiens, UniProt Q99572, I21V/I310A/M24R/N16P/N25R/Q22R/R20V/S23N/T19I/Y26L); assay: as above; assay type: cell-based; settings: EC90 ATP, mean ± S.E.M.
T5 construct: expressed in transfected cells; host or cells: Xenopus laevis oocytes (cRNA injection)
T5 sequence (Q99572 whole entry N16P/T19I/R20V/I21V/Q22R/S23N/M24R/N25R/Y26L/I310A): as the sequence (Q99572 whole entry N16P/T19I/R20V/I21V/Q22R/S23N/M24R/N25R/Y26L/K297G) above, with G297K, I310A counted along it
Description: (§4) Injected oocytes were stored at 16°C in ND96 buffer [in millimolar concentrations, NaCl 96, KCl 2, CaCl2 1.8, MgCl2 1, sodium pyruvate 5, and HEPES 5 (pH 7.6) supplemented with 50 μg/ml gentamycin and 50 μg/ml tetracycline]. Three to seven days postinjection two-electrode voltage clamp recordings were made from oocytes bathed in divalent-free ND96 buffer (in millimolar concentrations, NaCl 96, KCl 2, sodium pyruvate 5, HEPES 5, and 0.1 flufenamic acid, pH 7.6). Oocytes were voltage clamped at a holding potential of −60 mV with a GeneClamp500B amplifier (Molecular Devices).
as §2

[6] = biological target: T6, P2X7R mutant Insert G99 (Homo sapiens, UniProt Q99572, I21V/INS99D/M24R/N16P/N25R/Q22R/R20V/S23N/T19I/Y26L); assay: as above; assay type: cell-based; settings: EC90 ATP, mean ± S.E.M.
T6 construct: expressed in transfected cells; host or cells: Xenopus laevis oocytes (cRNA injection)
T6 sequence (Q99572 with tags, fused parts or gaps N16P/T19I/R20V/I21V/Q22R/S23N/M24R/N25R/Y26L/INS99D): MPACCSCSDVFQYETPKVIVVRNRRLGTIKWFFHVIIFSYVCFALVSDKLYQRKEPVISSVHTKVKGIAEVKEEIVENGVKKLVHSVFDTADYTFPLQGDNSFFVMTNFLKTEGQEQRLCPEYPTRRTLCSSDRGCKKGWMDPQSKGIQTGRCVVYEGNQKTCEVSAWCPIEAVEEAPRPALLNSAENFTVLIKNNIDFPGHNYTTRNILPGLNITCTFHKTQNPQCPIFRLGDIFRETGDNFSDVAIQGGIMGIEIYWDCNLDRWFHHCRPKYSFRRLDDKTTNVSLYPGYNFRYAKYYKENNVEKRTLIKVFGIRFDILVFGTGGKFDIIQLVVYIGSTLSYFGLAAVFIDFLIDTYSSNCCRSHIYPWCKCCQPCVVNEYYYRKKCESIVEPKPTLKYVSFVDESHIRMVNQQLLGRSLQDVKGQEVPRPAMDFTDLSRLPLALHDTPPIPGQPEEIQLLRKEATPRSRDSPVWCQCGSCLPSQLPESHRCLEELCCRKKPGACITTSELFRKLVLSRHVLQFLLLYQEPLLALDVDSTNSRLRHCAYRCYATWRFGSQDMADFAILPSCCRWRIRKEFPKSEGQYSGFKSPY
Description: as §4
(§5) Inhibition by the antagonists was expressed as the percentage of the peak current amplitude of an EC90 concentration of ATP recorded before the application of antagonist (ATP gave reproducible responses to ATP in the absence of antagonist). Inhibition curves were fitted with the Hill equation (variable slope) using GraphPad Prism 6 (GraphPad Software, San Diego, CA). […] Individual concentration-response curves were generated for individual experiments, and statistical analysis was carried out on the data generated. When shown in figures, the inhibition curves are fitted to the mean normalized data. […] Data are shown as mean ± S.E.M. In all cases n ≥ 3 for all data points.

[7] = biological target: T7, P2X7R point mutant T308A (Homo sapiens, UniProt Q99572, I21V/M24R/N16P/N25R/Q22R/R20V/S23N/T19I/T308A/Y26L); assay: as above; assay type: cell-based; settings: EC90 ATP, mean ± S.E.M.
T7 construct: expressed in transfected cells; host or cells: Xenopus laevis oocytes (cRNA injection)
T7 sequence (Q99572 whole entry N16P/T19I/R20V/I21V/Q22R/S23N/M24R/N25R/Y26L/T308A): as the sequence (Q99572 whole entry N16P/T19I/R20V/I21V/Q22R/S23N/M24R/N25R/Y26L/K297G) above, with G297K, T308A counted along it
Description: as §4, §2

[8] = biological target: T8, P2X7R point mutant F108C (Homo sapiens, UniProt Q99572, F108C/I21V/M24R/N16P/N25R/Q22R/R20V/S23N/T19I/Y26L); assay: cell-based
T8 construct: expressed in transfected cells; host or cells: Xenopus laevis oocytes (cRNA injection)
T8 sequence (Q99572 whole entry N16P/T19I/R20V/I21V/Q22R/S23N/M24R/N25R/Y26L/F108C): as the sequence (Q99572 whole entry N16P/T19I/R20V/I21V/Q22R/S23N/M24R/N25R/Y26L/K297G) above, with F108C, G297K counted along it
Description: as §4, §2

[9] = biological target: T9, P2X7R point mutant A166G (Homo sapiens, UniProt Q99572, A166G/I21V/M24R/N16P/N25R/Q22R/R20V/S23N/T19I/Y26L); assay: Two-electrode voltage clamp of ATP-evoked currents in Xenopus oocytes; assay type: cell-based; settings: EC90 ATP, mean ± S.E.M.
T9 construct: expressed in transfected cells; host or cells: Xenopus laevis oocytes (cRNA injection)
T9 sequence (Q99572 whole entry N16P/T19I/R20V/I21V/Q22R/S23N/M24R/N25R/Y26L/A166G): as the sequence (Q99572 whole entry N16P/T19I/R20V/I21V/Q22R/S23N/M24R/N25R/Y26L/K297G) above, with A166G, G297K counted along it
Description: as §4, §5

[10] = biological target: T10, P2X7R point mutant L83A (Homo sapiens, UniProt Q99572, I21V/L83A/M24R/N16P/N25R/Q22R/R20V/S23N/T19I/Y26L); assay: as above; assay type: cell-based; settings: EC90 ATP, mean ± S.E.M.
T10 construct: expressed in transfected cells; host or cells: Xenopus laevis oocytes (cRNA injection)
T10 sequence (Q99572 whole entry N16P/T19I/R20V/I21V/Q22R/S23N/M24R/N25R/Y26L/L83A): as the sequence (Q99572 whole entry N16P/T19I/R20V/I21V/Q22R/S23N/M24R/N25R/Y26L/K297G) above, with L83A, G297K counted along it
Description: as §4, §2

Row | SMILES | IC50 [1] [nM] | inhibition at 10 µM ([2]; P2X7, read-out: inhibition of ATP responses) [%] | IC50 ([2]; chimera 89–94) [nM] | IC50 [3] [nM] | IC50 [4] [nM] | IC50 [5] [nM] | IC50 [6] [nM] | IC50 [7] [nM] | IC50 [8] [nM] | IC50 [9] [nM] | IC50 [10] [nM] | effect on antagonist sensitivity relative to P2X7-2Nβ ([1]; 73–79 deletion) | fold decrease in antagonist sensitivity/affinity relative to P2X7-2Nβ ([2]; chimera 89–94) [fold]
1 | Cl.Clc1cccc(-c2nnnn2Cc2cccnc2)c1Cl.O [A438079, 3-(5-(2,3-dichlorophenyl)-1H-tetrazol-1-yl)methyl pyridine hydrochloride hydrate] | 200 | 15.7 | > 100000 | 50.1 | 251 | 6310 | 12600 | 1000 | 10000 | 3980 | 794 | – | –
2 | COc1ccc(CC(=O)NC(N=C(NC#N)Nc2cccc3ncccc23)C(C)(C)C)cc1OC (centres unmarked) [A740003, N-[1-[[(cyanoamino)(5-quinolinylamino)methylene]amino]-2,2-dimethylpropyl]-3,4-dimethoxybenzeneacetamide] | 79.4 | – | 251 | 12.6 | 100 | 126 | 1580 | 100 | 1000 | 316 | 316 | unaffected | ~3
